Measured values from patent publication US8389768B2, “Methods and compositions comprising novel cationic lipids” (The University of North Carolina at Chapel Hill, priority 2008, dated 2013).
pEC50, pIC50: −log10 of the molar value. Where two headings read alike, the source gives them in different places.

Legend:
H460 cells [1] = assay: Chemosensitization study with cisplatin (MTT assay); assay type: cell-based, human; details: 48 h
Description: (§1) The cell viability values shown are the averages of triplicate experiments performed on the same day. […] Data=mean, n=3.
H460 cells (1×10^4 per well) were seeded into 12-well plates. Cells were incubated with different lipids at 10 μM and cisplatin (Sigma-Aldrich, St. Louis, Mo.) at different concentrations in serum-containing medium at 37° C. Cell viability was detected by the MTT assay 48 h later.
(§2) The cytotoxic effects of the three novel lipids at various concentrations were assessed in H460 cells after exposure to lipids 1-3 and DOTAP for 48 h using the MTT assay (FIG. 5A). […] To assess the chemo-sensitization ability of these lipids to anticancer drugs such as cisplatin, H460 cells were exposed to each of these agents for 48 h, alone and in combination with cisplatin.

ERK1/2 = ERK1/2 activation in dendritic cells; assay type: cell-based; details: low concentration (1 μM)
From the text: Total ERK1/2 expression remained unperturbed under all conditions.

H460 cells [2] = assay: Flow cytometry with PI staining (apoptosis rate) after free lipid; assay type: cell-based, human; details: 10 μM lipid, 3 h
From the text: There was no statistically significant difference between the cytotoxicities of DSGLA and lipid 1.

H460 cells [3] = assay: In vitro transfection (pCMV-Luc luciferase reporter gene delivery); assay type: cell-based, human; details: presence of serum, cholesterol co-lipid 1:1, pCMV-Luc, lipid/DNA charge ratios 8:1 to 1:1
Description: RLU/pgram of protein was plotted against the lipid to DNA (+/−) charge ratios. The transfection efficiencies of the lipids were compared to that of commercially available N-(2,3-dioleoyloxy) propyl)-N,N,N-trimethylammonium chloride (DOTAP) and Lipofectamine™ 2000. The transfection values shown are the average of triplicate experiments performed on the same day.
H460 human large-cell lung carcinoma cells were seeded at a density of 20,000 cells per well in a 96-well plate 18-24 h prior to the transfection. Plasmid DNA (0.3 μg) was complexed with varying amounts of lipids (0.9-7.2 nmol) in plain RPMI medium (total volume of 100 μL) for 20 min. The charge ratios were varied from 1:1 to 8:1 (+/−) over these ranges of the lipids. The complexes were then added to the cells. After 3 h of incubation, 100 μL of RPMI with 20% FBS was added to the cells. The reporter gene activity was estimated after 24 h. The cells were washed twice with phosphate-buffered saline (PBS, 100 μL each) and lysed in 100 μL of lysis buffer (0.1 M Tris-HCl, 2 mM EDTA, 0.5% Triton X100, pH 7.8). Care was taken to ensure complete lysis. The cell lysate was then centrifuged at 14,000 rpm for 5 min. […] The protein concentration within the cellular lysates was quantified with the BSA standards from the Micro BSA™ Protein assay kit as supplied by Pierce Chemical Company (Rockford, Ill.). […]

H460 cells [4] = assay: Cellular growth inhibition study (MTT assay)
Description: as §1
H460 cells (1×10^4 per well) were seeded into 12-well plates. Cells were treated with different lipids at various concentrations in serum-containing medium at 37° C. for 72 h. Cell viability was then detected by an MTT assay. Briefly, 100 μL of the MTT solution (15 mg in 50 mL of PBS) was added to each well, and the cells were incubated for 4 h at 37° C. The medium was removed, and the formazan crystals formed in the cells were dissolved in DMSO. Absorbance at 570 nm was measured in an Ultramark Microplate Imaging System. The data are expressed as the percent of viable cells compared to the untreated control cells.
as §2

B16F10 melanoma cells = assay: Intracellular uptake of fluorescently-labeled siRNA in B16F10 cells; assay type: cell-based; details: 4 h, CY3-siRNA, lipid as cationic lipid of LPD-PEG / LPD-PEG-AA, vs DOTAP, AA vs no AA
Description: FIG. 9 presents fluorescence photographs of B16F10 cells after a 4 h treatment with 3′ CY3-labeled siRNA against an irrelevant target in LPD-PEG or LPD-PEG-AA nanoparticles formulated with the cationic lipid DSAA, DSGLA, or DOTAP.
We post inserted PEGylated lipids onto a LPD formulation, a nonviral vector developed in our lab as a nanocarrier for siRNA delivery, to increase the serum stability. In addition, we also tethered anisamide, a compound that specifically binds to the sigma receptor, to the distal end of PEG as a targeting ligand. […] Furthermore, the fluorescence signal in the cells treated with LPD-PEG-AA was much stronger than that of cells treated with LPD-PEG.

[5] = tested on: B16F10 cells (that stably express luciferase); assay: In vitro luciferase gene silencing; assay type: cell-based; details: 24 h, 37° C., lipid as cationic lipid of the LPD formulation, vs DOTAP and DSGLA, AA vs no AA
From the text: We examined the gene silencing effect by siRNA in different compositions. […] Furthermore, the silencing effect in the cells treated with LPD-PEG-AA was much stronger than that of cells treated with LPD-PEG.

Compound: CCCCCCCC/C=C\CCCCCCCC(=O)OCC(C[N+](C)(C)C)OC(=O)CCCCCCC/C=C\CCCCCCCC.[Cl-] (stereo not drawn) [DOTAP]
- sensitization of cells to cisplatin (H460 cells [1]; lipid 10 μM): not
- ERK1/2 activation (ERK1/2): increased ERK1/2 activation
- apoptosis rate (flow cytometry with PI staining) (H460 cells [2]): 4.7±0.5%

Compound: N,N-di-myristoyl-N-methyl-N-2[N′—(N^6-guanidino-L-lysinyl)]aminoethyl ammonium chloride [lipid 1]
- transfection efficiency (luciferase activity, RLU per μg protein) (H460 cells [3]): comparable to that of DOTAP and Lipofectamine 2000
- pEC50 (H460 cells [4]): ~4.80
- apoptosis rate (flow cytometry with PI staining) (H460 cells [2]): 10.4±3.0%

Compound: N,N-dimyristoyl-N-methyl-N-2[N′—(N2, N6-di-guanidino-L-lysinyl)]aminoethyl ammonium chloride [lipid 3]
- transfection efficiency (luciferase activity, RLU per μg protein) (H460 cells [3]): comparable to that of DOTAP and Lipofectamine 2000
- order of cytotoxicity (H460 cells [4]; 20 μM concentration of the corresponding lipids): lipid 1>lipid 3>lipid 2>DOTAP

Compound: N.N.[Cl][Pt][Cl] [cisplatin]
- pIC50 (H460 cells [1]; cisplatin alone, read-out: IC50 of cisplatin): ~4.92
- pIC50 (H460 cells [1]; with lipids 1-3 (10 μM), read-out: IC50 of cisplatin after treatment with lipids 1-3): 5.46

Compound: CCCCCCCCCCCCCCCCCC[N+](C)(CCCCCCCCCCCCCCCCCC)CCNC(=O)[C@@H](N)CCCNC(=N)N [DSAA, N-methyl-N-(2-(arginoylamino)ethyl)-N,N-Dioctadecyl aminium chloride]
- uptake of fluorescently-labeled siRNA (fluorescence photographs) (B16F10 melanoma cells): much greater
- silencing effect of anti-luciferase siRNA [5]: greater
